The results in this text go back to the CATMoS acute toxicity set (Mansouri et al. 2021).

The nature of this series: GHS categories as the set defines them, by LD50: 1 up to 5, 2 up to 50, 3 up to 300, 4 up to 2000, 5 above 2000 mg/kg. The settings on record: rat; in vivo; po.

In turn, `CC1CC(OC(=O)COc2cccc(C(F)(F)F)c2)CC(C)(C)C1` (centres undefined) registered a GHS category of 5. For the compound `O=P(O)(O)c1ccccc1`, the GHS category stood at 5. Take `CCCN(CCC)C(=O)C(CCC(=O)OCCOC(=O)COC(=O)Cc1c(C)n(C(=O)c2ccc(Cl)cc2)c2ccc(OC)cc12)NC(=O)c1ccccc1` (centres undefined): the GHS category stood at 4. On to `O=C(O)Cc1nc(-c2ccc(F)cc2)oc1-c1ccsc1`, for which the GHS category was 5. `O=C1CCC(N2C(=O)c3ccccc3C2=O)C(=O)N1CN1CCOCC1` (centres undefined): the GHS category amounted to 5.

In the case of `CC(CC=O)CCCC(C)(C)O` (centres undefined), the GHS category was 5. Compound `CC1CC(OC(=O)C(Oc2ccccc2Cl)C(C)C)CC(C)(C)C1` (centres undefined) registered a GHS category of 5. To `CCCOC(=O)[C@H](C)O` belongs 5; to `O=C(Nc1ccc2[nH]c(=O)[nH]c2c1)c1cc2ccccc2c(N=Nc2cc(Cl)ccc2Cl)c1O`, 5. For the compound `O=C(O)C(=O)Nc1cccc(-c2nnn[nH]2)c1`, the GHS category is given as 5. To `Cc1cc(Cl)ccc1OC(C)C(=O)Nc1ccccc1` (centres undefined) belongs 5; to `CCCC1O[C@@H]2C[C@H]3[C@@H]4CCC5=CC(=O)C=C[C@]5(C)[C@H]4[C@@H](O)C[C@]3(C)[C@]2(C(=O)CO)O1` (some centres undefined), 5. As to `Nc1c(/N=N/c2ccc(S(=O)(=O)CCOS(=O)(=O)O)cc2)c(S(=O)(=O)O)cc2cc(S(=O)(=O)O)c(/N=N/c3ccc(S(=O)(=O)CCOS(=O)(=O)O)cc3)c(O)c12`, the GHS category was determined as 5.

For the compound `C#CCOc1cc(-n2nc(C(C)(C)C)oc2=O)c(Cl)cc1Cl`, the GHS category came to 5. In turn, `CSCC[C@H](NC(=O)[C@H](Cc1c[nH]c2ccccc12)NC(=O)CCNC(=O)OC(C)(C)C)C(=O)N[C@@H](CC(=O)O)C(=O)N[C@@H](Cc1ccccc1)C(N)=O` displayed a GHS category of 3.

`CC/C=C\CCOC=O` showed a GHS category of 5. `CC(C)CCOCCC(C)C` displayed a GHS category of 5. With `CC(C)(c1ccccc1)C(C)(C)c1ccccc1`, the GHS category was determined as 5. In turn, `CCC(C(=O)Oc1cc(C)ccc1C(C)C)c1ccc(-c2ccccc2)cc1` (centres undefined) came in with a GHS category of 5. `CCN(C(=O)CCCSc1nnnn1C)C1CCCCC1O` (centres undefined) gave a GHS category of 4. Take `O=C(O)[C@H]1O[C@@H](O)[C@@H](O)[C@@H](O)[C@@H]1O`: the GHS category was found to be 5.

The compound `CN1C(=O)CCc2c(OCCCN3CCC(Cc4ccccc4)CC3)cccc21` gave a GHS category of 4. Compound `COCCNC(=O)c1ccnc(C(=O)NCCOC)c1` returned a GHS category of 5.

As to `O=C(Nc1ccc(NC(=O)c2cc3ccccc3c(N=Nc3ccc(Cl)cc3[N+](=O)[O-])c2O)c(Cl)c1)c1cc2ccccc2c(N=Nc2ccc(Cl)cc2[N+](=O)[O-])c1O`, the GHS category is 5. `CCCCCCCCC=COCC` gave a GHS category of 5. `CCC(C)CCCC(C)CCCC(C)C` (centres undefined) had a GHS category of 5. `COc1ccccc1N1CCN(/C(N)=N/c2cc(Cl)cc(Cl)c2)CC1` registered a GHS category of 4. `N[C@@H](CC(=O)O)C(=O)O` had a GHS category of 5. In turn, `Cc1ccc(OC(N)=O)c(C(=O)Oc2ccccc2)c1` yielded a GHS category of 5. Turning to `COc1ccc2c(c1)CCN(c1ccccc1)C2c1ccc(Cl)cc1` (centres undefined), the GHS category stood at 4.

`CCCCCCOC(=O)C(C)C` showed a GHS category of 5. `CC1CCC(C(C)C)C(OCC(O)CO)C1` (centres undefined) displayed a GHS category of 5. Next, `CC1=C(/C=C/C(C)=C/C=C/C(C)=C\C(=O)O)C(C)(C)CCC1`: 5; `COc1ccc(OCCCCN2CCN(CCc3cc(OC)c(OC)c(OC)c3)CC2)c(C2Sc3ccccc3N2C(C)=O)c1` (centres undefined): 4; `Cn1c(N)c(NC=O)c(=O)n(C)c1=O`: 5. As for `O=C(CCl)N(c1ccccc1)c1c(Cl)cccc1Cl`, the GHS category is listed as 5. Compound `CO[C@@]1(NC(=O)Cc2cccs2)C(=O)N2C(C(=O)O)=C(COC(N)=O)CS[C@@H]21` showed a GHS category of 5.

On to `O=C(O)CN(CC(=O)O)CC(O)CN(CC(=O)O)CC(=O)O`, for which the GHS category is on record as 5. Next, `CCCCCC1C(=O)CCC1CC(=O)OC` (centres undefined): 5; `CC(C)=CCC/C(C)=C/COC=O`: 5.

Consider `O=S(=O)(O)Oc1ccc(C(c2ccc(O)cc2)c2ccccn2)cc1` (centres undefined), for which the GHS category turned out to be 5.

Regarding `Cc1ccc2oc(C3(Cn4ccnc4)OCCO3)cc2c1`, the GHS category is 4. `CO[C@H]1C=CO[C@@]2(C)Oc3c(C)c(O)c4c(O)c(c(/C=N/N5CCN(C6CCCC6)CC5)c(O)c4c3C2=O)NC(=O)C(C)=CC=C[C@H](C)[C@H](O)[C@@H](C)[C@@H](O)[C@@H](C)[C@H](OC(C)=O)[C@@H]1C` showed a GHS category of 5.

The compound `CN(C)CCn1nnnc1SCC1=C(C(=O)O)N2C(=O)[C@@H](NC(=O)Cc3csc(N)n3)[C@H]2SC1` registered a GHS category of 5. For `CCCCNc1cc(C(=O)O)cc(S(N)(=O)=O)c1Oc1ccccc1`, the GHS category was 5. To `CC1(C)S[C@@H]2[C@H](NC(=O)C(c3ccccc3)S(=O)(=O)O)C(=O)N2[C@H]1C(=O)O` (some centres undefined) belongs 5. `CC(C)N1C2CCC1CC(=O)C2` gave a GHS category of 3. Next, `O=C1CC[C@H]2CO[C@@H]1O2`: 5; `CNC(=O)Oc1cccc2c1OCO2`: 3; `COc1ccccc1C1C(Cl)C(=O)N1NC(=O)c1ccccc1O` (centres undefined): 5. On to `CC(C)(C)c1cc(CCC(=O)NCCCCCCNC(=O)CCc2cc(C(C)(C)C)c(O)c(C(C)(C)C)c2)cc(C(C)(C)C)c1O`, for which the GHS category is on record as 5. Next, `O=S(=O)(O)c1ccc(/N=N/c2c(O)ccc3cc(S(=O)(=O)O)ccc23)cc1`: 5; `C=C[Si](C)(C)O[Si](C)(C)C=C`: 5; `CN[C@@H]1[C@H](O)[C@H](NC)[C@H]2O[C@@]3(O)C(=O)C[C@@H](C)O[C@H]3O[C@@H]2[C@H]1O`: 5. `CCCCCCCCCCCCCCOc1ccc(C(=O)O)o1`: the GHS category was determined as 5.

In turn, `c1ccc(CSCc2ccccc2)cc1` had a GHS category of 5. In turn, `CC(C)=C1CC[C@H](C)C2=C(C1)[C@@H](C)CC2` came in with a GHS category of 5. `CO[C@]12CC[C@@]3(C[C@@H]1[C@](C)(O)C(C)(C)C)[C@H]1Cc4ccc(O)c5c4[C@@]3(CCN1CC1CC1)[C@H]2O5`: the GHS category was 4. Compound `CC(CO)CCCC1CCCCC1` (centres undefined) registered a GHS category of 5.

As for `CC(=O)OC1CCC2C3CCC4CC(=O)CCC4(C)C3CCC12C` (centres undefined), the GHS category was found to be 5. Turning to `CCCc1c(OCc2cccn3c(=O)c(-c4nn[nH]n4)cnc23)ccc(C(C)=O)c1O`, the GHS category is recorded as 5.

For the compound `NC(=O)NCCO`, the GHS category is given as 5. Next, `O=C1NC(=O)C(N=NC2C(=O)NC(=O)NC2=O)C(=O)N1`: 5; `CN1C(=O)CCC1=O`: 5. The compound `CCN(C(=O)Oc1cccc(NC(=O)OC(C)C)c1)c1ccccc1` came in with a GHS category of 5. As to `CCCCCC1Nc2cc(C(F)(F)F)c(S(N)(=O)=O)cc2S(=O)(=O)N1` (centres undefined), the GHS category amounted to 5. As to `CCC=CCC=CCC=CCC=CCCCCCCC(=O)OCC`, the GHS category was determined as 5. `O=[N+]([O-])c1ccc(CCc2ccc([N+](=O)[O-])cc2)cc1` showed a GHS category of 5.

On to `CS(=O)(=O)c1ccc(O)c(Cl)c1`, for which the GHS category came to 4. `CCOC(=O)OCCOc1cc(O)c2c(c1N)C(=O)c1ccccc1C2=O`: the GHS category is recorded as 5. `COC(=O)c1ccc(C(=O)OC)c(N)c1` gave a GHS category of 5.

Compound `C=CCOC(=O)Nc1nc(N2CC=CCC2)cc2nc(=O)on12` displayed a GHS category of 5. As for `CC=CCC1=C(C)CCC1`, the GHS category worked out at 5.

`CNC(=O)/C(=N/OC)c1ccccc1COc1cc(C)ccc1C` displayed a GHS category of 5. Compound `CC(=O)N(C)C(=O)Oc1cccc2c1OCO2` returned a GHS category of 4. `N=c1ccn2c(n1)O[C@H]1[C@H](O)[C@@H](CO)O[C@H]12` returned a GHS category of 5.

In the case of `CN(C)CC(=O)O`, the GHS category is listed as 4. The compound `COc1cc(OC)nc(NC(=O)NS(=O)(=O)Cc2ccccc2C(=O)O)n1` had a GHS category of 5. Next, `CC(C)=CCCC(C)CCOCC=O` (centres undefined): 5. `Fc1ccccc1C1=NCC(=S)N(CC(F)(F)F)c2ccc(Cl)cc21`: the GHS category was determined as 5. `CCC(=O)OCCC(C)CCC=C(C)C` (centres undefined) showed a GHS category of 5. `CC(CC(=O)OCCN1C(C)(C)CC(OC(=O)CC(C)CC(C)(C)C)CC1(C)C)CC(C)(C)C` (centres undefined) registered a GHS category of 5.

Turning to `C=COC(=O)CCCCC(C)(C)C`, the GHS category is given as 5. Consider `CNc1nc(Nc2ccccc2)nc(Nc2ccc(C=Cc3ccc(Nc4nc(NC)nc(Nc5ccccc5)n4)cc3S(=O)(=O)O)c(S(=O)(=O)O)c2)n1`, for which the GHS category is 5.

Take `COc1cc([N+](=O)[O-])c(OC)cc1Cl`: the GHS category is 5. `O=C(O)CCCCCCCCCCNS(=O)(=O)c1ccc(Cl)cc1C(=O)c1ccccc1` came in with a GHS category of 4.

Consider `NC(N)=Nc1nc(CSCC/N=C/NS(=O)(=O)c2ccc(Br)cc2)cs1`, for which the GHS category amounted to 5. As for `COC(=O)CCN[N+](C)(C)C`, the GHS category was found to be 3. `CCO[Si](CCCOCC1CO1)(OCC)OCC` (centres undefined): the GHS category was found to be 5. `NC(=S)NS(=O)(=O)c1ccc(N)cc1`: the GHS category stood at 5.

Take `Cc1ccc(S(=O)(=O)NCCCCCC(=O)O)cc1`: the GHS category came out at 5. To `Nc1ccc(C(=O)c2ccc(Cl)cc2)cc1O` belongs 5; to `COC(=O)c1nccnc1N`, 5. On to `CCCCc1c(Cc2ccc(-c3ccccc3-c3nn[nH]n3)cc2)c(=O)nc2nc[nH]n12`, for which the GHS category is 4.

Take `CC(C)(C)[C@H](NC(=O)OCc1ccccc1)C(=O)O`: the GHS category is reported as 4. `CCOC(=O)[C@H](CCc1ccccc1)N[C@H]1CCCN2CCC[C@@H](C(=O)O)N2C1=O` returned a GHS category of 5. The compound `FC(F)(Cl)C(F)(Cl)C(F)(Cl)C(F)(F)Cl` (centres undefined) returned a GHS category of 5. In the case of `NC(=O)N(CO)CO`, the GHS category amounted to 5. Consider `O=c1nc(-c2cccnc2)[nH]c2ncccc12`, for which the GHS category is given as 4.
